This note sets out measurements from patent US12144788B2, “Visual cycle modulators” (CASE WESTERN RESERVE UNIVERSITY, priority 2017, dated 2024).

Structures are written as SMILES.

Data set [1] can be described thus: identification of atRAL Schiff base conjugates with MB compounds in mouse eyes. In kind it is in vivo. To be noted: Abca4−/−Rdh8−/− mice, 50 mg/kg oral gavage, bright light exposure 10 min; mass spectrometry versus standards. On the procedure:
FIGS. 6(A-B) illustrate identification of retinal Schiff base conjugates in Abca4^−/− Rdh8^−/− mice treated with MB-005 and MB-006. Following drug administration, mice were exposed to intense light for 10 min. After a 30 min recovery under darkness, animals were sacrificed and retinoids were extracted from the eyes. (A, B) Shown in the top panels are selective ion chromatograms for MB-005-retinal conjugates (A, at m/z=572.6) and MB-006-retinal conjugates (B, at m/z=588.6). Panels on the bottom show the mass spectra of the peaks coinciding with the retention times of their authentic standards. The insets display the MS/MS fragmentation patterns of the two imines, which were identical to the corresponding standards.
MB-005 or MB-006 (50 mg/kg) were administrated by oral gavage to Abca4^−/−Rdh8^−/− mice 24 h prior to light exposure. After exposure to fluorescent light for 10 min, animals were euthanized and their eyes were collected and homogenized in acetonitrile. After centrifugation, the supernatant was concentrated to 400 μl under vacuum. […]
With the effects of these compounds on visual cycle function established we next sought to examine their ability to form retinal-Schiff base conjugates in vivo. […] Retinoids were extracted and analyzed by mass spectrometry. […]

A further data set addresses RPE65 (Bos taurus, UniProt Q28175). Nature of the data set: in vitro retinoid isomerase activity assay with bovine RPE microsomes. The conditions noted are these: for inhibition against retinoid isomerization: up to concentrations of 50 μM; for times more potent compared to emixustat (racemic): RPE65 inhibition, bovine RPE microsomes.
For the next data set, the system named is Abca4−/−Rdh8−/− mice. Kind of data set: protection against light-induced retinal degeneration (OCT, ONL thickness). In kind it is in vivo, mouse. On the procedure: FIGS. 7(A-B) illustrate protective effects of MB compounds against light-induced retinal degeneration in Abca4^−/−Rdh8^−/− mice. Drugs were administrated at the indicated doses to 4-6 week-old Abca4^−/−Rdh8^−/− mice (weight ˜20 g) by oral gavage. After a 24 h dark adaptation, mice were exposed to 10,000 lux light for 30 min and then returned to a dark environment for 3 days. (A) Representative OCT images of mice treated with MB compounds. A dramatic decrease in the ONL indicates advanced retinal degeneration. The black scale beside the DMSO image represents 50 μm. (B) Retinal protective effects exerted by MB compounds as quantified by average ONL thickness. Only non-scattering ONL layers were measured. For images in which the ONL layer boundary was obscured due to light scattering, the ONL length was recorded as 0 μm. Error bars represent standard deviations; n=3-5 for each group.
(§1) Abca4^−/−Rdh8^−/− mice on a C57BL/6J background were generated as previously described. Male and female WT mice with C57BL/6J backgrounds were obtained from The Jackson Laboratory. Abca4^−/−Rdh8^−/− mice used in this study were homozygous for the Leu450 allele of Rpe65 as determined by a genotyping protocol published previously and free of Crb1/rd8 and rd/rd mutations Animals were housed either in the animal facility at the Case Western Reserve University School of Medicine, where they received a standard chow diet (LabDiet 5053) and were maintained under a 12-h light (˜300 lux) and 12-h dark cycle or at the Cole Eye Institute animal facility where they were. Mice were dark adapted overnight prior to all experiments. A cohort of Rdh8^−/−Abca4^−/− or C57BL/6J mice was used when they reached the age of 1 to 2 months, and both sexes were used evenly. All tested primary amines were suspended in 100 μl soybean oil with less than 10% (v/v) DMSO and were administered by oral gavage with a 22-gauge feeding needle. Experimental manipulations in the dark were done under dim red light transmitted through a Kodak No. 1 Safelight Filter (transmittance >560 nm).
After dark adaptation for 24 h, Abca4^−/−Rdh8^−/− mice with pupils dilated by 1% tropicamide were exposed to fluorescent light (10,000 lux; 150 W spiral lamp; Commercial Electric) for 30 min in a white paper bucket (Papersmith) and then kept in the dark for an additional 3 days. Development of retinal degeneration was then determined by ultra-high-resolution spectral domain OCT (SD-OCT; Bioptigen) and ERG as previously described.
To examine the ability of […] cause retinal damage in the absence of treatment with protective agents. Three days later retinas were imaged in vivo by optical coherence tomography, with preservation of outer nuclear layer thickness and light scattering properties serving as markers for retinal health. MB-001, which is capable of preventing light-induced retinal degeneration through both direct RPE65 inhibition as well as retinal sequestration served as a positive control for these experiments.

The next data set has as its system C57BL/6J mice. Kind of data set: in vivo dark-adapted ERG recordings after bleach. To be noted: gavage 1 day before bleach, doses indicated effective by retinoid analysis. More on the design: species or system mouse. On the procedure: FIG. 5 illustrates ERG responses of mice treated with visual cycle modulators. Oral gavage was used to administer vehicle or MB compounds to mice 24 h prior to 10 min light exposure followed by 6 h of dark adaptation. Dark-adapted ERGs were obtained to strobe flash stimuli.
C57BL/6J mice aged 1.5-4 months were anesthetized with ketamine (80 mg/kg) and xylazine (16 mg/kg) after overnight dark adaptation. Mydriatic eye drops were used to dilate the pupil (1% tropicamide; 2.5% phenylephrine). ERGs were obtained using an active electrode that contacted the corneal surface; needle electrodes placed in the cheek and tail provided reference and ground leads, respectively. Strobe stimuli were presented to the dark-adapted eye in an LKC (Gaithersburg, MD) ganzfeld. Responses were amplified, averaged and stored using an LKC UTAS E-3000 signal averaging system.
Baseline dark-adapted ERGs were recorded from each mouse. After a minimum 1 day interval, MB compounds or vehicle were administered by gavage at 9 a.m. The next morning, mydriatic eye drops were used to dilate the pupils and mice were then exposed to a 10-minute 10,000 lux bleach. Mice were dark-adapted for 6 hours, after which ERGs were recorded.
We next examined the impact of these compounds on retinal function, measured using the electroretinogram (ERG). FIG. 5 presents a family of dark-adapted ERGs measured 6 hours after mice underwent a 95% bleach presented 1 day following gavage administration of vehicle or MB compound molecules at doses indicated to be effective by retinoid analysis. […] In comparison, mice administered with MB compound molecules had had reduced amplitude ERGs indicative of incomplete bleaching recovery. […] In response to higher luminance stimuli, reproducible responses were observed. That these reflect dark-adapted cone-mediated responses is supported by their similarity to responses obtained from transducin KO mice which lack rod-mediated activity, while retaining normal cone-mediated responses, and have a very similar ERG phenotype.

Data set [2] deals with visual chromophore regeneration in C57BL6J mouse eyes. Kind of data set: visual chromophore recovery assay (ocular 11-cis-retinal by HPLC after bleach). In kind it is in vivo. The conditions noted are these: for effect on 11-cis-retinal recovery / visual cycle function: 500 μg (0.5 mg/mouse) oral gavage 24 h before light exposure; for visual chromophore regeneration: 10 μg/mouse oral gavage 24 h before light exposure (95% bleach), 6 h dark adaptation. On the procedure:
FIG. 4 illustrates inhibition of visual chromophore regeneration in C57BL6J mouse eyes by MB compounds. The MB drugs were administrated to mice by oral gavage 24 h prior to light exposure for 10 min. Then all mice recovered under darkness for 6 h.
as §1
After bright light exposure resulting in photoactivation of 95% of rhodopsin, mice were kept in the dark for 6 h. Then, the animals were euthanized and their eyes were collected and homogenized in 10 mM sodium phosphate buffer, pH 7.4, containing 50% methanol (v/v) and 40 mM hydroxylamine. The resulting mixture was extracted with 4 ml of hexanes.
Next, we tested the effects of the MB compound series on retinoid cycle function in the living mouse. […] After the light treatment, mice were allowed to dark adapt for 6 h before their ocular retinoid content was determined by HPLC. […] To examine the possibility that the lack of MB-008 efficacy at 24 h was due to insufficient concentrations resulting from a shorter elimination half-life or poorer bioavailability, we repeated the experiment with the mice subjected to light exposure 4 h after MB-008 administration. A 100 μg dose of MB-008 suppressed visual chromophore regeneration by ˜80%, supporting the idea that the retinal concentration of MB-008 could be sub-effective at the longer post-treatment light challenge.

Setting [3] is: 1 mg per mouse oral gavage 24 h before light.

RPE65, sequence (Q28175 whole entry): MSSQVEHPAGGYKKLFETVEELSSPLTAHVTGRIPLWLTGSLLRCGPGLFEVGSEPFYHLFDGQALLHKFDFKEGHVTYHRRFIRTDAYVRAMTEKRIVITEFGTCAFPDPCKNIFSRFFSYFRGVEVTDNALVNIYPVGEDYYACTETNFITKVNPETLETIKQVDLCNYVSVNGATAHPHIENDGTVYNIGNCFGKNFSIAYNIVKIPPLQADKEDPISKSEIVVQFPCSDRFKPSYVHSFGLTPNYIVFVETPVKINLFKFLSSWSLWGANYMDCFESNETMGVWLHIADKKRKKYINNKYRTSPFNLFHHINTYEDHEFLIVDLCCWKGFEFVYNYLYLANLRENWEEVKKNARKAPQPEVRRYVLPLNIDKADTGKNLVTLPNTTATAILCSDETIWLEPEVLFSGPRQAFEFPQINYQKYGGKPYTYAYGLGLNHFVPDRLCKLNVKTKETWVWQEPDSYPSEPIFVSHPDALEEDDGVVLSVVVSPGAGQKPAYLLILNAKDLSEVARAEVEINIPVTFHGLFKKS
Protocol for RPE65: Primary amines were pre-incubated with bovine RPE microsomes at room temperature for 5 min, then all-trans-retinol was added and the mixtures were incubated at 37° C. All incubation mixtures were quenched by the addition of methanol after 1 h of incubation. Inhibition of RPE65 enzymatic activity was measured as a decline in 11-cis-retinol production.
Synthesized primary amine (1 μl in DMF, with the final concentration ranging between 50 nM and 50 μM) was added to 10 mM Bis-Tris propane/HCl buffer, pH 7.4, containing 150 μg RPE microsomes, 1% BSA, 1 mM disodium pyrophosphate, and 20 μM aporetinaldehyde-binding protein 1 (CRALBP). The resulting mixture was pre-incubated at room temperature for 5 min. Then, all-trans-retinol (1 μl in DMF, at a final concentration of 20 μM) was added. The resulting mixture was incubated at 37° C. for 1 h. The reaction was quenched by adding 300 μl methanol, and products were extracted with 300 μl hexanes. Production of 11-cis-retinol was quantified by normal-phase HPLC with 10% (v/v) EtOAc in hexanes as the eluent at a flow rate of 1.4 ml/min. Retinoids were detected by monitoring their absorbance at 325 nm and quantified based on a standard curve representing the relationship between the amount of synthetic 11-cis-retinol standard and the area under the corresponding chromatographic peak.
To test these structural predictions, we examined the inhibitory activity of the compounds against RPE65 activity in an in vitro retinoid isomerase assay using bovine RPE microsomes as the enzyme source.

Regarding `CC(C)c1cc(OCC2CCCCC2)cc(C(O)CCN)c1` (stereo not drawn) [MB-006, 3-Amino-1-(3-(cyclohexylmethoxy)-5-isopropylphenyl)propan-1-ol], the “retinal Schiff base adducts in eye extracts” value in data set [1] is “contained compounds matching the expected molecular weight of the respective Schiff base adducts”. Further, at RPE65, the “inhibition against retinoid isomerization” value was “minimal or no inhibition”. Besides, the entries for the “protection against light-induced retinal degeneration” value in the data set on Abca4−/−Rdh8−/− mice (0.5 mg per mouse oral gavage 24 h before light) and in the data set on Abca4−/−Rdh8−/− mice (setting [3]) were “not” and “protective”, respectively. In addition, the “dark-adapted ERG 6 hours after 95% bleach” value with C57BL/6J mice is given as “less incomplete recovery”. Besides, the “effect on 11-cis-retinal recovery / visual cycle function” value in data set [2] (6 h dark) is on record as “strongly suppressed visual cycle function”. The “visual chromophore production, % of the vehicle control” value is reported as roughly 30% in data set [2] (500 μg oral gavage 24 h before light exposure) and roughly 20% in data set [2] (1000 μg oral gavage 24 h before light exposure).

`CC1=C(COc2cccc([C@H](O)CCN)c2)C(C)(C)CCC1` [MB-001, reference compound]: in the data set on Abca4−/−Rdh8−/− mice (50 μg oral gavage 24 h before light, positive control), the “protection against light-induced retinal degeneration” value was “fully protective”. For the same molecule, the “dark-adapted ERG 6 hours after 95% bleach” value with C57BL/6J mice was “responses to low luminance stimuli that were not different from background noise levels”.

Regarding `CC1=C(COc2cc(C(C)C)cc(C(O)CCN)c2)C(C)(C)CCC1` (stereo not drawn) [MB-007, 3-Amino-1-(3-isopropyl-5-((2,6,6-trimethylcyclohex-1-en-1-yl)methoxy)phenyl)propan-1-ol], the “inhibition against retinoid isomerization” value against RPE65 is reported as “minimal or no inhibition”. Besides, the “protection against light-induced retinal degeneration” value with Abca4−/−Rdh8−/− mice (setting [3]) was “no more protective than vehicle control”. Also, in data set [2] (6 h dark), the “effect on 11-cis-retinal recovery / visual cycle function” value is recorded as “minimal effects”. The “inhibition of 11-cis-retinal recovery (suppression of visual chromophore regeneration)” value in data set [2] (two-fold higher dose than 500 μg (1 mg per mouse), oral gavage 24 h before light exposure) was roughly 50%.

For orientation: IC50 means the midpoint of a concentration-inhibition curve. For `CCCC(CCO)COc1cccc(C(O)CCN)c1` (mixture of isomers) [MB-008, 3-((3-(3-Amino-1-hydroxypropyl)phenoxy)methyl)hexan-1-ol], inhibition at RPE65 was half-maximal at 0.189 ± 0.031 µM (IC50). For the same molecule, the “times more potent compared to emixustat (racemic)” value at RPE65 is reported as roughly 1.2 times. Moreover, the “protection against light-induced retinal degeneration” value is reported as “poorly protective” in the data set on Abca4−/−Rdh8−/− mice (doses as high as 0.25 mg, administered 24 h prior to the light challenge) and “full protection” in the data set on Abca4−/−Rdh8−/− mice (shorter time period (6 h), dose ten-times higher than that used for MB-004). Moreover, the “effect of shortening the duration between administration and light challenge on protection” value in the data set on Abca4−/−Rdh8−/− mice (from 24 to 6 h) is recorded as “substantially improved the protective effects”. Besides, the visual chromophore regeneration entry in data set [2] is on record as “recovered visual chromophore to a level comparable to vehicle-treated mice”. In addition, in data set [2] (100 μg dose, light exposure 4 h after administration), the “suppression of visual chromophore regeneration” value is recorded as roughly 80%. For the same molecule, the “suppression in visual cycle function” value in data set [2] (ten-fold higher dose than 10 μg, oral gavage 24 h before light exposure, 6 h dark) amounted to 30%.

With `CCCC(CCC)COc1cccc([C@H](O)CCN)c1` [MB-004], at RPE65, half-maximal inhibition (IC50) required 0.106 ± 0.016 µM and the “times more potent compared to emixustat (racemic)” value is “approximately 2.2 times”. The “protective effect relative to MB-001” value in the data set with Abca4−/−Rdh8−/− mice (25 μg oral gavage 24 h before 10,000 lux light, OCT 3 days later) was “approximately 80%”. Besides, in the data set on C57BL/6J mice, the “dark-adapted ERG 6 hours after 95% bleach” value was “responses to low luminance stimuli that were not different from background noise levels”. Also, the visual chromophore regeneration result in data set [2] is “dramatically suppressed visual chromophore regeneration”.
